Experimental findings from ChEMBL document CHEMBL5625275, “Design, synthesis and biological evaluation of tanshinone IIA derivatives as NLRP3 inflammasome inhibitors” (Bioorg Med Chem Lett, 2024) are described below.

Data set [1] concerns the target NACHT, LRR and PYD domains-containing protein 3 (Mus musculus, UniProt Q8R4B8). Description: Inhibition of NLRP3 inflammasome in mouse J774.A1 cells assessed as inhibition of IL-1 beta secretion. The data set is classed as cell-based.
Data set [2] in a line: Cytotoxicity against mouse J774.A1 cells assessed as cell viability. Particulars: read-out: TC50 (the source's name). The data set is classed as toxicity, cell-based.
The subject of data set [3] is J774.A1. Description: Inhibition of mitochondrial ROS production in LPS/nigericin stimulated mouse J774.A1 cells at 1 to 5 uM pretreated for 1 hr with compound and LPS followed by nigericin treatment for 1 hr by MitoSOX staining based immunofluorescence analysis. The data set is classed as functional, cell-based. Particulars: dose 1-5 µM, time 2.0 hrs.
Data set [4] deals with Mus musculus. The data set can be described thus: Anti-inflammatory activity against LPS-induced peritonitis C57BL/6 mouse model assessed as inhibition of IL-1 beta level in serum at 25 to 100 mg/kg, IG by ELISA analysis. The data set is classed as functional, organism-based. Particulars: dose 25-100 mg/kg.
Data set [5] has as its system NLRP3 inflammasome. The data set can be described thus: Selectivity index, ratio of TC50 for mouse J774.A1 cells to IC50 for NLRP3 inflammasome in mouse J774.A1 cells. The data set is classed as toxicity, cell-based. Particulars: read-out: Selectivity Index.
In data set [6] the target is NACHT, LRR and PYD domains-containing protein 3 (Mus musculus) (UniProt Q8R4B8). The data set can be described thus: Inhibition of NLRP3 inflammasome activation in LPS primed mouse J774.A1 cells assessed as reduction in lactate dehydrogenase at 1 to 5 uM preincubated with compound for 1 hr followed by nigericin stimulation and measured after 1 hr by ELISA method. The class given is cell-based. Particulars: dose 1-5 µM, time 2.0 hrs.
Chain of NACHT, LRR and PYD domains-containing protein 3 (Mus musculus) (Q8R4B8 whole entry, the tested form may be a part): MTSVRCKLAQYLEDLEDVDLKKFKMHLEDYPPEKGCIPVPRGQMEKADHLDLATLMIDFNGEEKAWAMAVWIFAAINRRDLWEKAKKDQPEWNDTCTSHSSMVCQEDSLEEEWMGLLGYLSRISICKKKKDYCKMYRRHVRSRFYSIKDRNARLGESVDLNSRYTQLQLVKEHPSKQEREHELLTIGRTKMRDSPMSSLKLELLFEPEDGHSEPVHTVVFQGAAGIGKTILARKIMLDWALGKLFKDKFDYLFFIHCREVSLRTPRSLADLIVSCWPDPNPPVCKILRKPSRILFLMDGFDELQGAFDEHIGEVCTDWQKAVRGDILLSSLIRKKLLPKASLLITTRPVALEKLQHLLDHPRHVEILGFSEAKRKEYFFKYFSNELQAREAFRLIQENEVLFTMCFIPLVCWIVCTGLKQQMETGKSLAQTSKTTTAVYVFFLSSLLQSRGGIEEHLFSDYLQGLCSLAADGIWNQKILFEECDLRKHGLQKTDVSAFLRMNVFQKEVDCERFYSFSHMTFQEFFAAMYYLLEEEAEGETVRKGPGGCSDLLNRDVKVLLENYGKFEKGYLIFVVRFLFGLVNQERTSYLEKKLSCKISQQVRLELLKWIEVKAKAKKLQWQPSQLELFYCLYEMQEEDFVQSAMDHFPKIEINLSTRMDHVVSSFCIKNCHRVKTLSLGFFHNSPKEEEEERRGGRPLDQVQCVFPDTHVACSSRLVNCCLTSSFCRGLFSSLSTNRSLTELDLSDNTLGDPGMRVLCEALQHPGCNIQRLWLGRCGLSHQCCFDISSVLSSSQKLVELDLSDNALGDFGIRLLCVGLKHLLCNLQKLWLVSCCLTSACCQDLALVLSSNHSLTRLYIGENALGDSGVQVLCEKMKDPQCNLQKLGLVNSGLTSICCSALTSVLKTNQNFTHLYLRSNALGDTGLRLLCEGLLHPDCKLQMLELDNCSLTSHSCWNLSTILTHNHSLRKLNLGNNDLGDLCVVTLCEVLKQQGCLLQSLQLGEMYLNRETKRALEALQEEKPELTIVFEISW

Data set [7] relates to J774.A1. Description: Inhibition of intracellular ROS generation in LPS primed mouse J774.A1 cells pretreated for 1 hr followed by nigericin treatment for 1 hr by DCFH-DA staining based fluorescence microscopy. Particulars: dose 1-5 µM, time 2.0 hrs. The data set is classed as functional, cell-based.
In data set [8] the test system is J774.A1. The data set can be described thus: Inhibition of intracellular ROS generation in LPS primed mouse J774.A1 cells assessed as decrease in ROS positive cells at 1 uM pretreated for 1 hr followed by nigericin treatment for 1 hr by DCFH-DA staining based fluorescence microscopy (reference value: 52%). Particulars: time 2 hrs. The data set is classed as functional. More on the design: scale not given: the % may be the effect or the level left.

For data set [9], the target named is NACHT, LRR and PYD domains-containing protein 3 (Mus musculus) (UniProt Q8R4B8). The data set can be described thus: Inhibition of NLRP3 inflammasome activation in LPS primed mouse J774.A1 cells assessed as reduction in cleaved gasdermin-D at 1 to 5 uM preincubated with compound for 1 hr followed by nigericin stimulation and measured after 1 hr by ELISA method. The class given is cell-based. Particulars: dose 1-5 µM, time 2.0 hrs.

The target is the same in data set [10]. The data set can be described thus: Inhibition of NLRP3 inflammasome activation in LPS primed mouse BMDM cells assessed as decrease in IL-1 beta production preincubated with compound for 1 hr followed by nigericin stimulation and measured after 1 hr by ELISA method. The class given is cell-based. Particulars: dose 1-5 µM, time 2.0 hrs.
Data set [11] shares this target. The data set can be described thus: Inhibition of NLRP3 inflammasome in LPS primed mouse J774.A1 cells assessed as inhibition of caspase-1 maturation at 1 to 5 uM preincubated with compound for 1 hr followed by nigericin stimulation and measured after 1 hr by Western blot analysis. The data set is classed as cell-based. Particulars: dose 1-5 µM, time 2.0 hrs.
The target is the same in data set [12]. The data set can be described thus: Inhibition of NLRP3 inflammasome in LPS primed mouse J774.A1 cells assessed as inhibition of IL-1 beta secretion in cell supernatant at 1 to 5 uM preincubated with compound for 1 hr followed by nigericin stimulation and measured after 1 hr by Western blot analysis. The data set is classed as cell-based. Particulars: dose 1-5 µM, time 2.0 hrs.

The test system of data set [13] is J774.A1. Description: Inhibition of intracellular ROS generation in LPS primed mouse J774.A1 cells assessed as decrease in ROS positive cells at 5 uM pretreated for 1 hr followed by nigericin treatment for 1 hr by DCFH-DA staining based fluorescence microscopy (reference value: 52%). The class given is functional. Set-up: scale not given: the % may be the effect or the level left. Particulars: time 2 hrs.

The target in data set [14] is NACHT, LRR and PYD domains-containing protein 3 (Mus musculus) (UniProt Q8R4B8). Description: Inhibition of NLRP3 inflammasome activation in LPS primed mouse J774.A1 cells assessed as decrease in IL-1 beta production preincubated with compound for 1 hr followed by nigericin stimulation and measured after 1 hr by ELISA method. The class given is cell-based. Particulars: dose 1-5 µM, time 2.0 hrs.

The subject of data set [15] is Mus musculus. The data set can be described thus: Anti-inflammatory activity against LPS-induced peritonitis C57BL/6 mouse model assessed as inhibition of IL-1 beta level in peritoneal fluid at 25 to 100 mg/kg, IG by ELISA analysis. Particulars: dose 25-100 mg/kg. The data set is classed as functional, organism-based.

Active and inactive are the calls of the source. No cut-off for these calls is given here. Bounds are passed on as bounds.

Chain of NACHT, LRR and PYD domains-containing protein 3 (Q8R4B8 whole entry, the tested form may be a part): as above

For `Cc1coc2c1C(=O)C(=O)c1c-2ccc2c1C=CCC2(C)C`, the IC50 in data set [1] worked out at 0.61 µM. In [2], the CC50 came to 61.8 µM.

On to `Cc1c(S(=O)(=O)O)oc2c1C(=O)C(=O)c1c-2ccc2c1CCCC2(C)C` [TANSHINONE IIA SULFONIC ACID], for which the IC50 in data set [1] is 4.3 µM. Also, the CC50 in data set [2] was greater than 100 µM.

Take `Cc1c(Br)oc2c1C(=O)C(=O)c1c-2ccc2c1CCCC2(C)C`: in data set [1], the IC50 is 5.21 µM. Also, the CC50 in [2] was greater than 100 µM.

For `Cc1coc2c1C(=O)C(=O)c1c-2ccc2c1CCCC2(C)C` [TANSHINONE IIA], the IC50 in [1] was 5.15 µM. For the same molecule, the CC50 in [2] is greater than 100 µM.

For `Cc1c(-c2ccccc2)oc2c1C(=O)C(=O)c1c-2ccc2c1CCCC2(C)C`, the IC50 in data set [1] was greater than 40 µM. Further, the CC50 in [2] was greater than 100 µM.

With `Cc1coc2c3ccc4c(c3c3ocnc3c12)CCCC4(C)C`, in data set [1], the IC50 was greater than 40 µM. Besides, the CC50 in [2] is greater than 100 µM.

As to `COc1cc(/C=C/C(=O)OC2CCC(C)(C)c3ccc4c(c32)C(=O)C(=O)c2c(C)coc2-4)cc(OC)c1OC` (centres undefined), the IC50 in [1] is 9.11 µM. In addition, in data set [2], the CC50 is 60.2 µM.

For `Cc1coc2c1C(=O)C(=O)c1c-2ccc2c1C(OC(=O)c1cc(Cl)ccc1Cl)CCC2(C)C` (centres undefined), the IC50 in data set [1] worked out at 3.6 µM. Also, in [2], the CC50 amounted to 19.7 µM.

`Cc1coc2c1C(=O)C(=O)c1c-2ccc2c1C(OC(=O)c1cccc(O)c1)CCC2(C)C` (centres undefined): in data set [1], the IC50 amounted to 5.53 µM. Moreover, the CC50 in [2] worked out at 18.2 µM.

Turning to `Cc1coc2c1C(=O)C(=O)c1c-2ccc2c1C(OC(=O)CCCCC1CCSS1)CCC2(C)C` (centres undefined), the IC50 in [1] was 1.27 µM. In addition, in data set [2], the CC50 worked out at 26.8 µM.

As to `CC(=O)OC1CCC(C)(C)c2ccc3c(c21)C(=O)C(=O)c1c(C)coc1-3` (centres undefined), the IC50 in data set [1] amounted to 1.25 µM. Besides, the CC50 in data set [2] was determined as 36.5 µM.

As to `Cc1coc2c1C(=O)C(=O)c1c-2ccc2c1C(OC(=O)c1ccccc1O)CCC2(C)C` (centres undefined), the half-inhibitory concentration (IC50) in data set [1] came to 0.48 µM. Further, the inhibition result in data set [3], in [6], in data set [9], in data set [11] and in data set [12] was “Active” throughout. In addition, the outcome in [4] and in data set [15] was Active. In addition, the selectivity ratio in data set [5] was determined as 62.1. Also, the inhibition entry in data set [7], in data set [10] and in data set [14] was “Dose-Dependent Effect” throughout. Moreover, in [2], the CC50 turned out to be 30.8 µM. Moreover, the Activity in data set [8] turned out to be 60%; in data set [13], 56%.

For the molecule `Cc1coc2c1C(=O)C(=O)c1c-2ccc2c1C(OC(=O)c1ccc(O)cc1)CCC2(C)C` (centres undefined), the IC50 in [1] was 2.57 µM. The CC50 in [2] turned out to be 14.5 µM.
